Data as given in US11278534B2, “Enantiomers of substituted thiazoles as antiviral compounds” (Innovative Molecules GmbH, priority 2017, dated 2022).
Like-named read-outs stand apart in the source and are kept apart here.

Key:
HSV-1 = assay: activity selectivity assay, HSV-1 infected Vero cells; assay type: cell-based
Method: (§1) HSV (HSV-1 Walki, HSV-1F, HSV-2 MS, HSV clinical isolates and HSV resistant strains) was cultivated on Vero cells (ATCC CCL-81) under the following conditions: The cells were grown in M199 medium (5% foetal calf serum, 2 mM glutamine, 100 IU/mL penicillin, 100 μg/mL streptomycin) in cell culture bottles at 37° C. and 5% CO2. The cells were splitted twice per week (1:4). For the infection, the medium was removed, the cells were washed with Hank's solution, detached using 0.05% trypsin, 0.02% EDTA and incubacted at a density of 4×10^5 cells/mL under the above-mentioned conditions for 24 h. The medium was removed and the virus solution was added at an m.o.i of <0.05 in a volume of 2 mL per 175 cm^2 surface. The infected cells were incubated at 37° C., 5% CO2 for 1 h and then the medium was made up to a volume of 50 mL per 175 cm^2 bottle. […] The virus was released by freezing (−80° C.) and thwawing (37° C.) the infected cultures twice. Cell debris was removed by centrifugation (300 g, 10 min, 4° C.) and the supernatant was frozen in aliquots at −80° C.
(§2) The virus titre was determined using a plaque assay. To this end, Vero cells were seeded in 24-well plates at a density of 4×10^5 cells per well and, after 24 h of incubation (37° C., 5% CO2) infected with 100 μL of inoculum (dilutions (10^−2 to 10^−12) of the virus stock). 1 h after the infection, the medium was removed and the cells were covered with 1 mL of overlay medium (0.5% methylcellulose, 0.22% sodium bicarbonate, 2 mM glutamine, 100 IU/mL penicillin, 100 μg/mL streptomycin, 5% foetal calf serum in MEM-Eagle medium with Earl's salt) and incubated for 3 d in a cell incubator at (37° C., 5% CO2). The cells were then fixated using 4% formaline for 1 h, washed with water, stained with Giemsa for 30 min and then washed and dried. Using a plaque viewer, the virus titre was determined.
(§3) The antiviral action was determined using a patented (DE10235967 and WO2004/015416) and subsequently published activity selectivity assay (G. Kleymann et al. J. Biomol. Screen. 2004; 9, 578) in 96- or 384-well mictrotitre plates using various cell lines of neuronal, lymphoid and epithelial origin, such as, for example, Vero (african green monkey kidney cells), MEF (murine embryonal fibroblasts), HELF (human embryonal fibroblasts), NT2 (human neuronal cell line) or Jurkat (human lymphoid T-cell line). The relevant experimental details of the above mentioned patent and publication to evaluate the antiviral activity of the invention (disclosed compounds) are described below.
(§4) The effect of the substances on the spreading of the cytopathogenic effect was determined in comparision to the reference compound acyclovir-sodium (Zovirax™), a clinically approved anti-herpes chemotherapeutic.
(§5) The compounds (50 mM stock solution dissolved in DMSO) are examined on microtitre plates (for example 96-well flat bottom cell culture plates) at a final concentration of 250 to 0.5 μM or, in case of potent antiviral compounds, 250 to 0.5 nM in 2 to 4 replications (4 to 2 substances per plate). Also examined are toxic and cytostatic effects or precipitation of the compounds. […]

HSV-1 ACV resistant = assay: activity selectivity assay, HSV-1 ACV resistant; assay type: cell-based
Method: as §1, §2, §3, §4, §5

HSV-2 = assay: activity selectivity assay, HSV-2 infected Vero cells; assay type: cell-based
Method: as §1, §2, §3, §4, §5

Human Carboanhydrase II = Human Carboanhydrase II (Homo sapiens, UniProt P00918); assay: carbonic anhydrase activity assay (pH indicator method); assay type: biochemical; conditions: for carbonic anhydrase inhibition: result in words
in vivo = assay: in vivo; set-up: species or system mice strain C57BL/6J; conditions: male, C57BL/6J, mouse, po, 10 mg/kg
Method: Pharmcokinetic parameters were determined for Example 7, 7(−), 7(+) and 7c in male mice strain C57BL/6J at an intraveneous (i.v.) dose of 5 mg/kg (5% DMSO in heterologous plasma, 2.5 mL/kg) and an oral dose (p.o) of 10 mg/kg (DMSO/0.5% HPMC (5:95), 5 mL/kg).

Structure (SMILES) | IC50 (HSV-1; Human alphaherpesvirus 1) [nM] | IC50 (HSV-1 ACV resistant; Human alphaherpesvirus 1) [nM] | IC50 (HSV-2; Human alphaherpesvirus 2) [nM] | carbonic anhydrase inhibition (Human Carboanhydrase II) | IC50 (HSV-1) [nM] | IC50 (HSV-1 ACV resistant; HSV-1 ACV resistant) [nM] | IC50 (HSV-2) [nM] | IC50 (Human Carboanhydrase II) [µM] | AUC (in vivo) [ng·h/mL] | Cmax (in vivo) [ng/mL]
Cc1nc(N(C)C(=O)Cc2ccc(-c3cc(F)ccc3F)cc2)sc1[S@](=N)(=O)C1CC1 (single isomer, unassigned) [Example 7a(+), (+)-N-(5-(Cyclopropanesulfonimidoyl)-4-methylthiazol-2-yl)-2-(2′,5′-difluoro-[1,1′-biphenyl]-4-yl)-N-methylacetamide] | 250 to 750 | 250 to 750 | 500 to 2000 | – | – | – | – | – | – | –
Cc1nc(N(C)C(=O)Cc2ccc(-c3ccccn3)cc2)sc1[S@](C)(=N)=O (stereo in doubt) [Example 7c, N-Methyl-N-[4-methyl-5-(methylsulfonimidoyl)thiazol-2-yl]-2-[4-(2-pyridyl)phenyl]acetamide] | – | – | – | no or significantly reduced carbonic anhydrase inhibition | – | – | – | – | – | –
Cc1nc(N(C)C(=O)Cc2ccc(-c3cc(F)ccc3F)cc2)sc1S(=N)(=O)C1CC1 (stereo not shown) [Example 7a, N-[5-(Cyclopropylsulfonimidoyl)-4-methyl-thiazol-2-yl]-2-[4-(2,5-difluorophenyl)phenyl]-N-methyl-acetamide] | 30 to 100 | 30 to 100 | 50 to 500 | – | – | – | – | – | – | –
Cc1nc(N(C)C(=O)Cc2ccc(-c3ccccn3)cc2)sc1[S@](=N)(=O)C1CC1 (single isomer, unassigned) [Example 7b(+), (+)-N-(5-(Cyclopropanesulfonimidoyl)-4-methylthiazol-2-yl)-N-methyl-2-(4-(pyridin-2-yl)phenyl)acetamide] | 500 to 1500 | 500 to 1500 | 2000 to 8000 | – | – | – | – | – | – | –
Nc1nc2c(ncn2COCCO)c(=O)[nH]1 [Acyclovir, reference compound] | – | – | – | – | 500 to 3000 | > 25000 | 500 to 3000 | – | – | –
Cc1nc(N(C)C(=O)Cc2ccc(-c3ccccn3)cc2)sc1[S@@](=N)(=O)C1CC1 (single isomer, unassigned) [Example 7b(−), (−)-N-(5-(Cyclopropanesulfonimidoyl)-4-methylthiazol-2-yl)-N-methyl-2-(4-(pyridin-2-yl)phenyl)acetamide] | 75 to 250 | 75 to 250 | 200 to 750 | – | – | – | – | – | – | –
Cc1nc(N(C)C(=O)Cc2ccc(-c3ccccn3)cc2)sc1[S@@](C)(=N)=O (single isomer, unassigned) [Example 7c(−), (−)-N-Methyl-N-(4-methyl-5-(S-methylsulfonimidoyl)thiazol-2-yl)-2-(4-(pyridin-2-yl)phenyl)acetamide] | 75 to 300 | 75 to 300 | 100 to 750 | no or significantly reduced carbonic anhydrase inhibition | – | – | – | > 10 | 38000 | 6650
CN(C(=O)Cc1ccc(-c2cc(F)ccc2F)cc1)c1nc(CO)c([S@@](C)(=N)=O)s1 (single isomer, unassigned) [Example 10a, 2-(2′,5′-Difluoro-[1,1′-biphenyl]-4-yl)-N-(4-(hydroxymethyl)-5-(S-methylsulfonimidoyl)thiazol-2-yl)-N-methylacetamide] | 50 to 250 | 50 to 250 | 1000 to 5000 | – | – | – | – | – | – | –
Cc1nc(N(C)C(=O)Cc2ccc(-c3ccccn3)cc2)sc1[S@](C)(=N)=O (racemic) [Example 7c, N-Methyl-N-[4-methyl-5-(methylsulfonimidoyl)thiazol-2-yl]-2-[4-(2-pyridyl)phenyl]acetamide] | 150 to 600 | 150 to 600 | 200 to 1500 | – | – | – | – | > 10 | 22500 | 4290
Cc1nc(N(C)C(=O)Cc2ccc(-c3ccccn3)cc2)sc1S(=N)(=O)C1CC1 (racemic) [Example 7b, N-[5-(Cyclopropylsulfonimidoyl)-4-methyl-thiazol-2-yl]-N-methyl-2-[4-(2-pyridyl)phenyl]acetamide] | 100 to 400 | 100 to 400 | 250 to 1000 | no or significantly reduced carbonic anhydrase inhibition | – | – | – | > 10 | – | –
Cc1nc(N(C)C(=O)Cc2ccc(-c3ccccn3)cc2)sc1[S@](C)(=N)=O (single isomer, unassigned) [Example 7c(+), (+)-N-Methyl-N-(4-methyl-5-(S-methylsulfonimidoyl)thiazol-2-yl)-2-(4-(pyridin-2-yl)phenyl)acetamide] | 300 to 750 | 300 to 750 | 500 to 1500 | no or significantly reduced carbonic anhydrase inhibition | – | – | – | > 10 | 31200 | 5700
CC(=O)N=[S@](C)(=O)c1sc(N(C)C(=O)Cc2ccc(-c3cc(F)ccc3F)cc2)nc1C [Example 8, (R)-N-(5-(N-Acetyl-S-methylsulfonimidoyl)-4-methylthiazol-2-yl)-2-(2′,5′-difluoro-[1,1′-biphenyl]-4-yl)-N-methylacetamide] | 10000 to 50000 | 10000 to 50000 | 50000 to 250000 | – | – | – | – | – | – | –
Cc1nc(N(C)C(=O)Cc2ccc(-c3cc(F)ccc3F)cc2)sc1[S@@](=N)(=O)C1CC1 (single isomer, unassigned) [Example 7a(−), (−)-N-(5-(Cyclopropanesulfonimidoyl)-4-methylthiazol-2-yl)-2-(2′,5′-difluoro-[1,1′-biphenyl]-4-yl)-N-methylacetamide] | 20 to 50 | 20 to 50 | 30 to 300 | – | – | – | – | – | – | –
CN(C(=O)Cc1ccc(-c2cc(F)ccc2F)cc1)c1nc(CO)c([S@](C)(=N)=O)s1 (single isomer, unassigned) [Example 10b, 2-(2′,5′-Difluoro-[1,1′-biphenyl]-4-yl)-N-(4-(hydroxymethyl)-5-(S-methylsulfonimidoyl)thiazol-2-yl)-N-methylacetamide] | 1000 to 5000 | 1000 to 5000 | 5000 to 25000 | – | – | – | – | – | – | –
Cc1nc(N(C)C(=O)Cc2ccc(-c3cc(F)ccc3F)cc2)sc1[S@](C)(=N)=O [Example 7(+), (+)-(R)-2-(2′,5′-Difluoro-[1,1′-biphenyl]-4-yl)-N-methyl-N-(4-methyl-5-(S-methylsulfonimidoyl)thiazol-2-yl)acetamide] | 30 to 200 | 30 to 200 | 30 to 200 | no or significantly reduced carbonic anhydrase inhibition | – | – | – | > 10 | – | –
